In ChEMBL document CHEMBL1145472, “Genetic basis of resistance to fusidic acid in staphylococci” (2007):
Values after ≈ are worked out from the molar mass of the structure shown.

Columns and labels:
Assay type in all cases: functional
Staphylococcus aureus [1] = experiment: Antimicrobial activity against Staphylococcus aureus CS1128
Staphylococcus aureus [2] = experiment: Antimicrobial activity against Staphylococcus aureus CS805
Staphylococcus aureus [3] = experiment: Antimicrobial activity against Staphylococcus aureus CS860
Staphylococcus aureus [4] = experiment: Antimicrobial activity against Staphylococcus aureus CS1076
Staphylococcus aureus [5] = experiment: Antimicrobial activity against Staphylococcus aureus RN4220 expressing pCU1 gene
Staphylococcus aureus [6] = experiment: Antimicrobial activity against Staphylococcus aureus RN4220 expressing (pCU1:SAS0043) (fusC) gene
Staphylococcus aureus [7] = experiment: Antimicrobial activity against Staphylococcus aureus RN4220 expressing (pCU1:SSP2165) (fusD) gene
Staphylococcus aureus [8] = experiment: Antimicrobial activity against Staphylococcus aureus RN4220 expressing pAJ96
Staphylococcus aureus [9] = experiment: Antimicrobial activity against Staphylococcus aureus RN4220 expressing pAJ96:fusB
Staphylococcus aureus [10] = experiment: Antimicrobial activity against Staphylococcus aureus RN4220 expressing (pAJ96:SAS0043) (fusC) gene
Staphylococcus aureus [11] = experiment: Antimicrobial activity against Staphylococcus aureus RN4220
Staphylococcus aureus [12] = experiment: Antimicrobial activity against Staphylococcus aureus CS957
Staphylococcus aureus [13] = experiment: Antimicrobial activity against Staphylococcus aureus
Staphylococcus aureus [14] = experiment: Antimicrobial activity against methicillin-susceptible Staphylococcus aureus 476
Staphylococcus aureus [15] = experiment: Antimicrobial activity against Staphylococcus aureus 649 expressing pUB101
Staphylococcus aureus [16] = experiment: Antimicrobial activity against Staphylococcus aureus RN4220 expressing pCU1:fusB gene
Staphylococcus aureus [17] = experiment: Antimicrobial activity against Staphylococcus aureus CS992
Staphylococcus aureus [18] = experiment: Antimicrobial activity against Staphylococcus aureus CS730
Staphylococcus aureus [19] = experiment: Antimicrobial activity against Staphylococcus aureus CS808
Staphylococcus aureus [20] = experiment: Antimicrobial activity against Staphylococcus aureus CS866
Staphylococcus aureus [21] = experiment: Antimicrobial activity against Staphylococcus aureus CS602
Staphylococcus aureus [22] = experiment: Antimicrobial activity against Staphylococcus aureus CS851
Staphylococcus aureus [23] = experiment: Antimicrobial activity against Staphylococcus aureus CS979
Staphylococcus aureus [24] = experiment: Antimicrobial activity against Staphylococcus aureus CS1083
Staphylococcus aureus [25] = experiment: Antimicrobial activity against Staphylococcus aureus RN4220 expressing (pAJ96:SSP2165) (fusD) gene
[26] = tested on: Staphylococcus intermedius; experiment: Antimicrobial activity against Staphylococcus intermedius CL1
[27] = tested on: Staphylococcus intermedius; experiment: Antimicrobial activity against Staphylococcus intermedius CL2
[28] = tested on: Staphylococcus intermedius; experiment: Antimicrobial activity against Staphylococcus intermedius NCTC 11048
[29] = tested on: Staphylococcus lugdunensis; experiment: Antimicrobial activity against Staphylococcus lugdunensis 16641
[30] = tested on: Staphylococcus lugdunensis; experiment: Antimicrobial activity against Staphylococcus lugdunensis 16496
[31] = tested on: Staphylococcus lugdunensis; experiment: Antimicrobial activity against Staphylococcus lugdunensis 31440
[32] = tested on: Staphylococcus lugdunensis; experiment: Antimicrobial activity against Staphylococcus lugdunensis 40869
[33] = tested on: Staphylococcus saprophyticus; experiment: Antimicrobial activity against Staphylococcus saprophyticus ATCC 15305

For CC(=O)O[C@H]1C[C@@]2(C)[C@@H](C[C@@H](O)[C@H]3[C@@]4(C)CC[C@@H](O)[C@@H](C)[C@@H]4CC[C@@]32C)/C1=C(\CCC=C(C)C)C(=O)O [FUSIDIC ACID], the MIC (Staphylococcus aureus [1]) was 4 µg/mL (≈ 7.74 µM), the MIC (Staphylococcus aureus [2]) was 8 µg/mL (≈ 15.5 µM) and the MIC (Staphylococcus aureus [3]) was 8 µg/mL (≈ 15.5 µM). For the same molecule, the MIC (Staphylococcus aureus [4]) was 8 µg/mL (≈ 15.5 µM), the MIC (Staphylococcus aureus [5]) was 0.125 µg/mL (≈ 0.242 µM) and the MIC (Staphylococcus aureus [6]) was 16 µg/mL (≈ 31 µM). For the same molecule, the MIC (Staphylococcus aureus [7]) was 2 µg/mL (≈ 3.87 µM), the MIC (Staphylococcus aureus [8]) was 0.125 µg/mL (≈ 0.242 µM) and the MIC (Staphylococcus aureus [9]) was 32 µg/mL (≈ 61.9 µM). It also gave an MIC (Staphylococcus aureus [10]) of 16 µg/mL (≈ 31 µM), an MIC (Staphylococcus aureus [11]) of 0.125 µg/mL (≈ 0.242 µM) and an MIC (Staphylococcus aureus [12]) of 3 µg/mL (≈ 5.81 µM). The MIC (Staphylococcus aureus [13]) was 4 µg/mL (≈ 7.74 µM), the MIC (Staphylococcus aureus [14]) was 8 µg/mL (≈ 15.5 µM) and the MIC (Staphylococcus aureus [15]) was 16 µg/mL (≈ 31 µM). It also gave an MIC (Staphylococcus aureus [16]) of 16 µg/mL (≈ 31 µM), an MIC (Staphylococcus aureus [17]) of 2 µg/mL (≈ 3.87 µM) and an MIC (Staphylococcus aureus [18]) of 3 µg/mL (≈ 5.81 µM). It also gave an MIC (Staphylococcus aureus [19]) of 3 µg/mL (≈ 5.81 µM), an MIC (Staphylococcus aureus [20]) of 3 µg/mL (≈ 5.81 µM) and an MIC (Staphylococcus aureus [21]) of 4 µg/mL (≈ 7.74 µM). The MIC (Staphylococcus aureus [22]) was 4 µg/mL (≈ 7.74 µM), the MIC (Staphylococcus aureus [23]) was 4 µg/mL (≈ 7.74 µM) and the MIC (Staphylococcus aureus [24]) was 4 µg/mL (≈ 7.74 µM). The MIC (Staphylococcus aureus [25]) was 4 µg/mL (≈ 7.74 µM), the MIC [26] was 4 µg/mL (≈ 7.74 µM) and the MIC [27] was 4 µg/mL (≈ 7.74 µM). For the same molecule, the MIC [28] was 0.064 µg/mL (≈ 0.124 µM), the MIC [29] was 4 µg/mL (≈ 7.74 µM) and the MIC [30] was 4 µg/mL (≈ 7.74 µM). It also gave an MIC [31] of 4 µg/mL (≈ 7.74 µM), an MIC [32] of 0.064 µg/mL (≈ 0.124 µM) and an MIC [33] of 2 µg/mL (≈ 3.87 µM).
